“And” between values parts separate entries of the source, which are not always exact repeats. Equal entries are not always repeated.
How the values were obtained:
[1] = biological target: T1, Prostaglandin E2 receptor EP3 subtype (Bos taurus, UniProt P34979)
T1 sequence (P34979 whole entry): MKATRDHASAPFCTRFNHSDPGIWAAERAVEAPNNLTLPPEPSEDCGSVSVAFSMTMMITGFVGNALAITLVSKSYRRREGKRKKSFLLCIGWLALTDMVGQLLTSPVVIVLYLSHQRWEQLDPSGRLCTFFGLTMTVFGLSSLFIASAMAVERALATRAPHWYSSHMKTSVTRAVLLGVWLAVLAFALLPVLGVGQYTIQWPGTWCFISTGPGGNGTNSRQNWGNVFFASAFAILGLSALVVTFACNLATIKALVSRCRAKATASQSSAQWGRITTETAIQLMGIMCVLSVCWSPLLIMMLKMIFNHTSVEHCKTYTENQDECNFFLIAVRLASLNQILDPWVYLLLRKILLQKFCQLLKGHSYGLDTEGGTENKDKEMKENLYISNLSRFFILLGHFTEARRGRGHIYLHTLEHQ

[2] = biological target: Prostaglandin F2-alpha receptor (Bos taurus, UniProt P37289)
Prostaglandin F2-alpha receptor, sequence (P37289 whole entry): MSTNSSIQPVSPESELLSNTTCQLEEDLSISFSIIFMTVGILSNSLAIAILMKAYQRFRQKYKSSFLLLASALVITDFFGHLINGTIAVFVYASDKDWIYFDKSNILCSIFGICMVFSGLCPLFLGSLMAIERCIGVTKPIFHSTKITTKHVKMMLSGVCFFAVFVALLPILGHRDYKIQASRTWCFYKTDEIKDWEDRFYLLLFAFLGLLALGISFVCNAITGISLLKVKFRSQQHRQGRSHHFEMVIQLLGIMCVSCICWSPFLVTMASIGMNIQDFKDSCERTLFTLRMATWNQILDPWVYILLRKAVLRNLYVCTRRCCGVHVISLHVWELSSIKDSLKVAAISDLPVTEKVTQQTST

| Compound | Ki [1] | Ki [2] [nM] |
| --- | --- | --- |
| CCCCCC(O)CC=C1C(=O)C=CC1CC=CCCCC(=O)O (configuration not stated) [CAS_41598-07-6] | 1580 nM and 1110 nM | 2500 |
| CCCCC(C)(O)CC=CC1C(O)CC(=O)C1CCCCCCC(=O)OC (configuration not stated) [MISOPROSTOL (Methyl Ester)] | 25 nM and 54 nM |  |
| CCCCC[C@H](O)/C=C/[C@H]1[C@H](O)CC(=O)[C@@H]1C/C=C\CCCC(=O)O [DINOPROSTONE] | 4 nM and 3 nM | 3400 |
| CCCCC[C@H](O)/C=C/C1[C@H](O)C[C@H](O)[C@@H]1C/C=C\CCCC(=O)O (stereo partly drawn) [(Z)-7-[(1R,3R,5S)-3,5-Dihydroxy-2-((E)-(S)-3-hydroxy-oct-1-enyl)-cyclopentyl]-hept-5-enoic acid] | 37 nM and 24 nM |  |
| O=C(O)CCCC=CC[C@@H]1[C@@H](CC[C@@H](O)CCc2ccccc2)[C@H](O)C[C@@H]1O [NSC_170548] | > 10000 nM and 7940 nM | 98 |
| O=NN1CSCSC1 [NSC_130741] | > 10000 nM | > 10000 |
| CC(C)OC(=O)CCC/C=C\C[C@@H]1[C@@H](/C=C/[C@@H](O)CCc2ccccc2)[C@H](O)C[C@@H]1O [CAS_130209-76-6] | 388 nM | 59 |
| O=C(O)CCCC=CCC1C(O)CC(O)C1C=CC(O)COc1cccc(C(F)(F)F)c1 (configuration not stated) [CAS_40666-16-8] | 3170 nM and 3500 nM | 100 |
| CCCCC[C@H](O)/C=C/C1[C@@H](C/C=C\CCCC(=O)O)[C@H]2CO[C@@H]1C2 (some centres not stated) [U46619] | > 10000 nM | 8900 |
| CCCCC[C@H](O)/C=C/[C@@H]1[C@H]2C/C(=C\CCCC(=O)O)C[C@H]2C[C@H]1O | 4860 nM and 5370 nM | > 10000 |
| O=C(O)CCC/C=C\C[C@H]1C(=O)C[C@@H](O)[C@@H]1/C=C/[C@@H](O)CCc1ccccc1 [17-PHENYL TRINOR PROSTAGLANDIN E2] | 16 nM and 7 nM | 1410 |
| O=C(O)CCC/C=C\C[C@@H]1[C@@H](/C=C/[C@@H](O)COc2cccc(Cl)c2)[C@H](O)C[C@@H]1O [CLOPROSTENOL] | 90 nM and 91 nM |  |

Next, values leading:

| Ki [1] | Ki [2] [nM] | Compound |
| --- | --- | --- |
| 8740 nM | > 10000 | CC1CCCCC1C(O)C=CC1C(O)CC(Cl)C1CC=CCOCC(=O)O (configuration not stated) [CAS_5311208] |
| 12 nM and 25 nM | 1000 | COC(=O)CCC=C=CCC1C(=O)CC(O)C1C=CC(O)COc1ccccc1 (configuration not stated) [NSC_5282207] |
|  | 22 | O=C(O)CCC/C=C\C[C@@H]1[C@@H](/C=C/[C@@H](O)COc2ccccc2)[C@H](O)C[C@@H]1O [PGF2Alpha,16-Phenoxy] |
| > 10000 nM |  | CCCC1([C@@H](O)C/C=C/C2[C@H](O)CC(=O)[C@@H]2CCCCCCC(=O)OC)CCC1 (some centres not stated) [Butaprost (Methyl Ester)] |
| > 10000 nM | 5900 | CCCCCCCC(=O)CCC1C(O)CC(O)C1CC=CCCCC(=O)OC(C)C (configuration not stated) [CAS_151671] |
| 29 nM |  | COC(=O)CCC=CCCC1C(=O)CC(O)C1C=CCC(C)(O)C=CC1=CCCC1 (configuration not stated) [CAS_132045] |
| 8 nM and 11 nM | > 10000 | O=C(CCC=CCCC1C(=O)CC(O)C1OCC(O)COc1ccccc1)Oc1ccc(NC(=O)c2ccccc2)cc1 (configuration not stated) [NSC_5311224] |
| 265 nM |  | CC#CCC(C)[C@H](O)/C=C/[C@@H]1[C@H]2C/C(=C/CCCC(=O)O)C[C@H]2C[C@H]1O (some centres not stated) |
| 2 nM and 4 nM | > 10000 | CCCCC[C@@H](O)/C=C/[C@H]1[C@H](O)CC(=O)[C@@H]1CCCCCCC(=O)O |
| > 10000 nM | > 10000 | O=C(O)CCCCCCc1c(O)n(Cc2ccccc2)c(=O)n1NCC(O)C1CCCCC1 (configuration not stated) [CAS_122021] |
| 21 nM and 11 nM | 2500 | CS(=O)(=O)NC(=O)CCCC=CCC1C(=O)CC(O)C1C=CC(O)COc1ccccc1 (configuration not stated) [CAS_60325-46-4] |
| 3000 nM and > 10000 nM |  | CC(=O)NNC(=O)N1Cc2ccccc2Oc2ccc(Cl)cc21 [CAS_4336830] |
| > 10000 nM | 4200 | CC(C)OC(=O)CCC/C=C/C[C@@H]1[C@@H](CC[C@@H](O)CCc2ccccc2)[C@H](O)C[C@@H]1O [LATANOPROST (PHXA41)] |
